Test results published in ChEMBL document CHEMBL1201862, “PubChem BioAssay data set” (2004).
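Briefly, cells in 96-well plates were exposed to five compound concentrations for 48 h, and endpoints were estimated by linear interpolation. GI50 = concentration required for 50% inhibition of growth.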 Active and inactive are the calls of the source. Rule as the data show it: active = GI50 up to about 1.1 µM and inactive = higher.

Experiments:
Test in all cases: NCI tumour cell line growth inhibition, 48 h
A549 = tested on: A549
HCC 2998 = tested on: HCC 2998
SK-OV-3 = tested on: SK-OV-3
Malme-3M = tested on: Malme-3M
SK-MEL-5 = tested on: SK-MEL-5
MDA-MB-435 = tested on: MDA-MB-435
SNB-19 = tested on: SNB-19
SK-MEL-28 = tested on: SK-MEL-28
EKVX = tested on: EKVX
MOLT-4 = tested on: MOLT-4
NCI-H226 = tested on: NCI-H226
MDA-N = tested on: MDA-N
786-0 = tested on: 786-0
U-251 = tested on: U-251
A498 = tested on: A498
SK-MEL-2 = tested on: SK-MEL-2
SF-268 = tested on: SF-268
SN12C = tested on: SN12C
NCI/ADR-RES = tested on: NCI/ADR-RES
HCT-15 = tested on: HCT-15

| Structure (SMILES) | GI50 (A549) | GI50 (HCC 2998) | GI50 (SK-OV-3) | GI50 (Malme-3M) | GI50 (SK-MEL-5) | GI50 (MDA-MB-435) | GI50 (SNB-19) | GI50 (SK-MEL-28) | GI50 (EKVX) | GI50 (MOLT-4) | GI50 (NCI-H226) | GI50 (MDA-N) | GI50 (786-0) | GI50 (U-251) | GI50 (A498) | GI50 (SK-MEL-2) | GI50 (SF-268) | GI50 (SN12C) | GI50 (NCI/ADR-RES) | GI50 (HCT-15) [µM] |
| --- | --- | --- | --- | --- | --- | --- | --- | --- | --- | --- | --- | --- | --- | --- | --- | --- | --- | --- | --- | --- |
| CC(C)(C)c1cc2c(OC/C=C/c3ccccc3)c(c1)Cc1cc(C(C#N)(OC/C=C/c3ccccc3)OC/C=C/c3ccccc3)cc(c1OC/C=C\c1ccccc1)Cc1cc(C(C)(C)C)cc(c1OC/C=C/c1ccccc1)Cc1cc(C(C#N)(OC/C=C\c3ccccc3)OC/C=C/c3ccccc3)cc(c1OC/C=C\c1ccccc1)C2 (stereo not drawn) | > 100 µM (inactive) | > 100 µM (inactive) | > 100 µM (inactive) | 83.4 µM (inactive) | > 100 µM (inactive) | > 100 µM (inactive) | > 100 µM (inactive) | > 100 µM (inactive) | > 100 µM (inactive) | > 100 µM (inactive) | > 100 µM (inactive) | > 100 µM (inactive) | > 100 µM (inactive) | > 100 µM (inactive) | > 100 µM (inactive) | > 100 µM (inactive) | > 100 µM (inactive) | > 100 µM (inactive) | > 100 µM (inactive) | > 100 |
| COc1ccc2nc3ccccc3c(NCCCCCN(CCCl)CCCl)c2c1 | < 0.0308 µM (active) | 0.108 µM (active) | 0.192 µM (active) | 0.524 µM (active) | 0.119 µM (active) | 0.17 µM (active) | 0.0427 µM (active) | 0.214 µM (active) | 0.485 µM (active) | 0.0165 µM (active) | 0.101 µM (active) | 0.121 µM (active) | 0.0218 µM (active) | 0.0318 µM (active) | 0.206 µM (active) | 0.194 µM (active) | 0.0383 µM (active) | 0.0283 µM (active) | 0.0399 µM (active) | 0.0619 |
| CCNC(=S)/N=c1\sc(NCC)nc2sc3c(c12)CCN(N1CCc2c(sc4nc(NCC)s/c(=N\C(=S)NCC)c24)C1)C3 | 82.4 µM (inactive) | > 100 µM (inactive) | > 100 µM (inactive) | > 100 µM (inactive) | 31.8 µM (inactive) | 97.5 µM (inactive) | 74 µM (inactive) | 92 µM (inactive) | > 100 µM (inactive) | 34.1 µM (inactive) | 24.9 µM (inactive) | 91.4 µM (inactive) | 26.6 µM (inactive) | 33.3 µM (inactive) | 54 µM (inactive) | > 100 µM (inactive) | > 100 µM (inactive) | > 100 µM (inactive) | > 100 µM (inactive) | > 100 |
| CCN(CC)CCCNc1nncc2cc3c([nH]c4ccccc43)c(C)c12 | 10.8 µM (inactive) | 11 µM (inactive) | 15.2 µM (inactive) | 17.6 µM (inactive) | 19.3 µM (inactive) | 18.2 µM (inactive) | 12.4 µM (inactive) | 17.7 µM (inactive) | 8.38 µM (inactive) | 1.49 µM (inactive) | 11.5 µM (inactive) | 16.4 µM (inactive) | 5.53 µM (inactive) | 6.04 µM (inactive) | 15.4 µM (inactive) | 36.4 µM (inactive) | 8.18 µM (inactive) | 6.24 µM (inactive) | 48.9 µM (inactive) | 16 |
| OC(CC(O)(C(F)(F)Cl)C(F)(F)Cl)c1ccccc1 (stereo not drawn) | > 10 µM (inactive) | > 10 µM (inactive) | > 10 µM (inactive) | > 10 µM (inactive) | 0.00809 µM (active) | < 0.001 µM (active) | > 10 µM (inactive) | > 10 µM (inactive) | > 10 µM (inactive) | > 10 µM (inactive) | > 10 µM (inactive) | > 10 µM (inactive) | < 0.001 µM (active) | > 10 µM (inactive) | 0.0107 µM (active) | > 10 µM (inactive) | > 10 µM (inactive) | > 10 µM (inactive) | > 10 µM (inactive) | > 10 |
| Cc1cccc(CC(Cc2ccc(C)cc2C(=O)O)C(=O)O)c1 (stereo not drawn) | > 100 µM (inactive) | > 100 µM (inactive) | 74.1 µM (inactive) | > 100 µM (inactive) | > 100 µM (inactive) | > 100 µM (inactive) | > 100 µM (inactive) | > 100 µM (inactive) | > 100 µM (inactive) | > 100 µM (inactive) | > 100 µM (inactive) | > 100 µM (inactive) | > 100 µM (inactive) | > 100 µM (inactive) | > 100 µM (inactive) | > 100 µM (inactive) | > 100 µM (inactive) | > 100 µM (inactive) | > 100 µM (inactive) | > 100 |
| CC1CC(N)=C(C#N)C1(C#N)C#N (stereo not drawn) | > 100 µM (inactive) | > 100 µM (inactive) | > 100 µM (inactive) | > 100 µM (inactive) |  | > 100 µM (inactive) | > 100 µM (inactive) |  | > 100 µM (inactive) | > 100 µM (inactive) | > 100 µM (inactive) | > 100 µM (inactive) | > 100 µM (inactive) | > 100 µM (inactive) | > 100 µM (inactive) | > 100 µM (inactive) | > 100 µM (inactive) | > 100 µM (inactive) | > 100 µM (inactive) | 28.4 |
